# Data as given in PubChem BioAssay AID210 (DTP/NCI, 2004).
# Toxic doses and inconclusive results are not listed.
# Tested on: CD2F1 mice, ip Colon 26 adenocarcinoma, median survival T/C
# Experiment: NCI In Vivo Anticancer Drug Screen. Data for tumor model Colon 26 Adenocarcinoma (intraperitoneal) in CD2F1 (CDF1) mice
# Conditions: endpoint: median survival time, higher = longer survival
# Experimental: The antitumor activity of compounds was measured in mice bearing transplantable tumors. Survival or tumor size were measured and the results are expressed as the measurement made in the treated group (T) divided by the measurement made in the vehicle treated control group (C). The tumor model used in this assay is Colon 26 Adenocarcinoma (intraperitoneal) in CD2F1 (CDF1) mice
# [1] = dose: 80.0 mg/kg/injection, schedule: Q04DX003 (ip), vehicle: saline
# [2] = dose: 160.0 mg/kg/injection, schedule: Q04DX003 (ip), vehicle: saline
# [3] = dose: 0.5 mg/kg/injection, schedule: Q04DX003 (ip), vehicle: saline
# [4] = dose: 1.0 mg/kg/injection, schedule: Q04DX003 (ip), vehicle: saline
# [5] = dose: 2.0 mg/kg/injection, schedule: Q04DX003 (ip), vehicle: saline
smiles,measurement,setting,value
Oc1ccc(C2CCCCC2)cc1CN1CCCCC1,T/C,"dose: 3.12 mg/kg/injection, schedule: Q04DX003 (ip), vehicle: saline",112 % of control
same,T/C,"dose: 6.25 mg/kg/injection, schedule: Q04DX003 (ip), vehicle: saline",114 % of control
same,T/C,"dose: 12.5 mg/kg/injection, schedule: Q04DX003 (ip), vehicle: saline",112 % of control
same,T/C,"dose: 25.0 mg/kg/injection, schedule: Q04DX003 (ip), vehicle: saline",104 % of control
same,T/C,"dose: 50.0 mg/kg/injection, schedule: Q04DX003 (ip), vehicle: saline",115 % of control
same,T/C,"dose: 100.0 mg/kg/injection, schedule: Q04DX003 (ip), vehicle: saline",120 % of control
S=P(N1CC1)(N1CC1)N1CC1,T/C,"dose: 1.5 mg/kg/injection, schedule: Q04DX003 (ip), vehicle: saline",106 % of control
same,T/C,"dose: 3.0 mg/kg/injection, schedule: Q04DX003 (ip), vehicle: saline",115 % of control
same,T/C,"dose: 12.0 mg/kg/injection, schedule: Q04DX003 (ip), vehicle: saline",153 % of control
ClC(Cl)=C(Cl)Cl,T/C,"dose: 75.0 mg/kg/injection, schedule: Q04DX002 (ip), vehicle: other",101 % of control
same,T/C,"dose: 150.0 mg/kg/injection, schedule: Q04DX002 (ip), vehicle: other",93 % of control
same,T/C,"dose: 300.0 mg/kg/injection, schedule: Q04DX002 (ip), vehicle: other",89 % of control
NC(=O)c1cn(C2OC(CO)C(O)C2O)c2ncnc(N)c12 (stereo not drawn),T/C,"dose: 2.0 mg/kg/injection, schedule: Q04DX003 (ip), vehicle: Klucel (hydroxypropylcellulose) (HPC)",156 % of control
COc1cc(NS(C)(=O)=O)ccc1Nc1c2ccccc2nc2ccccc12,T/C,"dose: 0.5 mg/kg/injection, schedule: Q04DX002 (ip), vehicle: other",111 % of control
same,T/C,"dose: 0.5 mg/kg/injection, schedule: Q04DX003 (ip), vehicle: other",98 % of control
same,T/C,"dose: 1.0 mg/kg/injection, schedule: Q04DX002 (ip), vehicle: other",119 % of control
same,T/C,"dose: 1.0 mg/kg/injection, schedule: Q04DX003 (ip), vehicle: other",112 % of control
same,T/C,"dose: 2.0 mg/kg/injection, schedule: Q04DX003 (ip), vehicle: other",117 % of control
same,T/C,"dose: 4.0 mg/kg/injection, schedule: Q04DX002 (ip), vehicle: other",151 % of control
same,T/C,"dose: 8.0 mg/kg/injection, schedule: Q04DX002 (ip), vehicle: other",185 % of control
same,T/C,"dose: 8.0 mg/kg/injection, schedule: Q04DX003 (ip), vehicle: other",156 % of control
same,T/C,"dose: 16.0 mg/kg/injection, schedule: Q04DX002 (ip), vehicle: other",240 % of control
same,T/C,"dose: 16.0 mg/kg/injection, schedule: Q04DX003 (ip), vehicle: other",170 % of control
Nc1n[nH]c(N)n1,T/C,"dose: 40.0 mg/kg/injection, schedule: Q04DX003 (ip), vehicle: saline",105 % of control
same,T/C,[1],96 % of control
same,T/C,"dose: 100.0 mg/kg/injection, schedule: Q04DX003 (ip), vehicle: suspension in saline",95 % of control
same,T/C,[2],112 % of control
same,T/C,"dose: 200.0 mg/kg/injection, schedule: Q04DX003 (ip), vehicle: suspension in saline",104 % of control
same,T/C,"dose: 320.0 mg/kg/injection, schedule: Q04DX003 (ip), vehicle: saline",106 % of control
same,T/C,"dose: 400.0 mg/kg/injection, schedule: Q04DX003 (ip), vehicle: suspension in saline",105 % of control
same,T/C,"dose: 800.0 mg/kg/injection, schedule: Q04DX003 (ip), vehicle: suspension in saline",108 % of control
same,T/C,"dose: 1600.0 mg/kg/injection, schedule: Q04DX003 (ip), vehicle: suspension in saline",100 % of control
Cc1c2oc3c(C)c([N+](=O)[O-])cc(C(=O)NC4C(=O)NC(C(C)C)C(=O)N5CCCC5C(=O)N(C)CC(=O)N(C)C(C(C)C)C(=O)OC4C)c3nc-2c(C(=O)NC2C(=O)NC(C(C)C)C(=O)N3CCCC3C(=O)N(C)CC(=O)N(C)C(C(C)C)C(=O)OC2C)c(N)c1=O (stereo not drawn),T/C,"dose: 500.0 micrograms/kg/injection, schedule: Q01DX001 (ip), vehicle: saline + alcohol",112 % of control
COC(C(=O)C(O)C(C)O)C1CC2C=C3C=C(OC4CC(OC5CC(O)C(OC)C(C)O5)C(OC(C)=O)C(C)O4)C(C)C(=O)C3=C(O)C2=C(O)C1OC1CC(OC2CC(OC3CC(C)(O)C(O)C(C)O3)C(O)C(C)O2)C(O)C(C)O1 (stereo not drawn),T/C,"dose: 0.5 mg/kg/injection, schedule: Q04DX003 (ip), vehicle: saline with Tween-80",100 % of control
same,T/C,"dose: 1.0 mg/kg/injection, schedule: Q04DX003 (ip), vehicle: saline with Tween-80",99 % of control
same,T/C,"dose: 2.0 mg/kg/injection, schedule: Q04DX003 (ip), vehicle: saline with Tween-80",99 % of control
same,T/C,"dose: 4.0 mg/kg/injection, schedule: Q04DX003 (ip), vehicle: saline with Tween-80",96 % of control
same,T/C,"dose: 8.0 mg/kg/injection, schedule: Q04DX003 (ip), vehicle: saline with Tween-80",102 % of control
Oc1cc2c3c(c1)c1cc4c(cc1c[n+]3CC2)OCO4,T/C,"dose: 6.25 mg/kg/injection, schedule: Q04DX003 (ip), vehicle: distilled water + Tween-80",118 % of control
same,T/C,"dose: 100.0 mg/kg/injection, schedule: Q04DX003 (ip), vehicle: distilled water + Tween-80",118 % of control
COc1ccc(CC2C(=O)NC(C)C(=O)N(C)C3Cc4ccc(cc4)Oc4cc(ccc4O)CC(C(=O)NC(C)C(=O)NC(C)C(=O)N2C)N(C)C3=O)cc1 (stereo not drawn),T/C,[3],97 % of control
same,T/C,[4],98 % of control
same,T/C,[5],87 % of control
same,T/C,"dose: 2.59 mg/kg/injection, schedule: Q04DX003 (ip), vehicle: other",99 % of control
same,T/C,"dose: 4.32 mg/kg/injection, schedule: Q04DX003 (ip), vehicle: other",103 % of control
same,T/C,"dose: 7.2 mg/kg/injection, schedule: Q04DX003 (ip), vehicle: other",112 % of control
same,T/C,"dose: 12.0 mg/kg/injection, schedule: Q04DX003 (ip), vehicle: other",113 % of control
NC(C/[N+]([O-])=N/O)C(=O)O (stereo not drawn),T/C,"dose: 8.78 mg/kg/injection, schedule: Q01DX010 (ip), vehicle: alkali diluted with saline",99 % of control
same,T/C,"dose: 13.2 mg/kg/injection, schedule: Q01DX010 (ip), vehicle: alkali diluted with saline",100 % of control
same,T/C,"dose: 19.8 mg/kg/injection, schedule: Q01DX010 (ip), vehicle: alkali diluted with saline",96 % of control
same,T/C,"dose: 29.6 mg/kg/injection, schedule: Q01DX010 (ip), vehicle: alkali diluted with saline",113 % of control
same,T/C,"dose: 44.4 mg/kg/injection, schedule: Q01DX010 (ip), vehicle: alkali diluted with saline",104 % of control
same,T/C,"dose: 66.7 mg/kg/injection, schedule: Q01DX010 (ip), vehicle: alkali diluted with saline",95 % of control
COC(=O)C(F)C(Br)C(=O)OC (stereo not drawn),T/C,"dose: 6.25 mg/kg/injection, schedule: Q04DX003 (ip), vehicle: saline with Tween-80",102 % of control
same,T/C,"dose: 12.5 mg/kg/injection, schedule: Q04DX003 (ip), vehicle: saline with Tween-80",102 % of control
same,T/C,"dose: 25.0 mg/kg/injection, schedule: Q04DX003 (ip), vehicle: saline with Tween-80",111 % of control
same,T/C,"dose: 50.0 mg/kg/injection, schedule: Q04DX003 (ip), vehicle: saline with Tween-80",114 % of control
CCC(=O)O[C@H]1CC[C@H]2[C@@H]3CCC4=CC(=O)CC[C@]4(C)[C@H]3CC[C@]12C,T/C,[1],87 % of control
same,T/C,[2],96 % of control
same,T/C,"dose: 640.0 mg/kg/injection, schedule: Q04DX003 (ip), vehicle: saline",86 % of control
COc1ccc(CC2C(=O)NC(C)C(=O)N(C)C3C(=O)N(C)C(Cc4ccc(O)c(c4)Oc4ccc(cc4)C3O)C(=O)NC(C)C(=O)NC(C)C(=O)N2C)cc1 (stereo not drawn),T/C,[3],98 % of control
same,T/C,[4],101 % of control
same,T/C,"dose: 1.08 mg/kg/injection, schedule: Q04DX003 (ip), vehicle: other",91 % of control
same,T/C,"dose: 1.8 mg/kg/injection, schedule: Q04DX003 (ip), vehicle: other",113 % of control
same,T/C,[5],92 % of control
same,T/C,"dose: 3.0 mg/kg/injection, schedule: Q04DX003 (ip), vehicle: other",120 % of control
same,T/C,"dose: 5.0 mg/kg/injection, schedule: Q04DX003 (ip), vehicle: other",114 % of control
Cc1ncc(CNC(=O)N(CCCl)N=O)c(N)n1,T/C,"dose: 25.0 mg/kg/injection, schedule: Q04DX003 (oral), vehicle: saline",360 % of control
same,T/C,"dose: 40.0 mg/kg/injection, schedule: Q04DX003 (oral), vehicle: saline",340 % of control
same,T/C,"dose: 64.0 mg/kg/injection, schedule: Q04DX003 (oral), vehicle: saline",95 % of control
CC(=O)OC1C2(CC3N4C(=O)C5(CO)SSC4(CC31O)C(=O)N5C)OC(C)C(C)(C)C2=O (stereo not drawn),T/C,"dose: 1.25 mg/kg/injection, schedule: Q04DX002 (ip), vehicle: saline",97 % of control
same,T/C,"dose: 2.5 mg/kg/injection, schedule: Q04DX002 (ip), vehicle: saline",108 % of control
same,T/C,"dose: 5.0 mg/kg/injection, schedule: Q04DX002 (ip), vehicle: saline",87 % of control
